Experimental data from article PMC10669340, “Bioactive Compounds from an Endophytic Pezicula sp. Showing Antagonistic Effects against the Ash Dieback Pathogen” (Biomolecules, 2023).
Values after ≈ are worked out from the molar mass of the structure shown. “Also recorded” adds a separate entry of the source. Read-outs that look alike come from different tables or passages of the source.

Key:
[1] = tested on: Fraxineus excelsior leaves; assay: Phytotoxicity leaf puncture assay; conditions: 1 mg/mL in MeOH, 20 µL on punctured leaves, evaluated after 3 days
Experimental: The phytotoxicity of the compounds 1, 3 and 4 was assessed using the leaf puncture assay as described previously. The other compounds could not be evaluated because of the limited quantity.
For this assay, similar leaves of the same Fraxineus excelsior plant were chosen onto which the compounds were applied. The pure compounds were dissolved at 1 mg/mL in MeOH. Then, 20 µL of test samples were applied to the adaxial sides of leaves that had previously been needle punctured. A total of 20 µL of MeOH in distilled water (4%) was applied on the leaves as the negative control and 1 mg/mL macrocidin A [23] as the positive control. Each treatment was repeated three times and then the leaves were placed on moistened paper filters in petri dishes (diameter 9 cm) to prevent the droplets from drying. The experiment was run in duplicate. Leaves were evaluated for the symptoms after 3 days.

[2] = tested on: H. fraxineus (isolate RH02-T6-B4-2); assay: Agar disc diffusion assay; type: cell-based, Hymenoscyphus fraxineus; conditions: for Antifungal activity, inhibition diameter: 6 mm disc, 7 days, 21 °C; for inhibitory effects against H. fraxineus (in words): 50 µg (1) and 20 µg (3) test substance per paper disc
Experimental: The antifungal activity of the isolated compounds against H. fraxineus was assessed by the disc diffusion method using 9 cm diameter petri dishes as previously described […] Three sterile filter paper discs per plate were gently placed on dried potato–dextrose agar. The fungicide nystatin was applied as the positive control (20 and 50 µg/paper disc) and methanol as the negative control (10 µL/paper disc). The test plates were incubated at 21 °C for 7 days, the inhibition diameters were measured, and the activity was evaluated compared to nystatin.
Figure S44: Agar disc (6 mm diam.) diffusion assay of compound CJ-17,572 (1) against H. fraxineus RH02-T6-B4-2, grown in 9-cm petri dishes on agar-based PD
medium with H. fraxineus, N - positive control nystatin, M - negative control methanol, CJ – 1.
Table S1. Antifungal activity of the compounds 1-6. n.i.: no inhibition, n.t.: not tested.
Compounds Amount ( µg/paper disc)
Peziculastatin n.t. n.i. 8 mm
Mycorrhizin A 19 mm 31 mm n.t.
Cryptosporioptide A n.t. n.i. n.i.
Cryptosporioptide B n.t. n.i. 8 mm
Cryptosporioptide C n.t. n.i. n.i.
Nystatin 21 mm 24 mm n.t.

[3] = tested on: panel of bacteria and fungi; assay: Antimicrobial serial dilution assay, whole panel (summary statements); type: cell-based
Experimental: (§1) The antimicrobial activity (minimum inhibitory concentration, MIC) of the compounds was determined against Acinetobacter baumannii DSM 30008, Bacillus subtilis DSM 10, Chromobacterium violaceum DSM 30191, Escherichia coli DSM 1116, Mycobacterium smegmatis ATCC 700084, Pseudomonas aeruginosa PA14, Staphylococcus aureus DSM 346, Candida albicans DSM1665, Mucor hiemalis DSM 2656, Pichia anomala DSM 6766, Rhodotorula glutinis DSM 10134 and Schizosaccharomyces pombe DSM 70572 in a serial dilution assay as previously described.

[4] = MTT cytotoxicity assay; type: cell-based; conditions: read-out: Cytotoxic activity (IC50)
Experimental: (§2) The in vitro cytotoxicity assay was performed using the MTT (3-(4,5-dimethylthiayol-2-yl)-2,5-diphenyltetrazolium bromide) test in 96-well microtiter plates as previously described.

[5] = tested on: panel of mammalian cell lines; assay: MTT cytotoxicity assay, panel (summary statements); type: cell-based; conditions: 4–6 only KB3.1 and L929
Experimental: as §2

[6] = tested on: Chromobacterium violaceum DSM 30191; assay: Antimicrobial serial dilution assay (MIC); type: cell-based
Experimental: as §1

[7] = tested on: Pseudomonas aeruginosa PA14; assay: Antimicrobial serial dilution assay (MIC); type: cell-based; conditions: n.i.: no inhibition
Experimental: as §1

[8] = tested on: Staphylococcus aureus DSM 346; assay: Antimicrobial serial dilution assay (MIC); type: cell-based
Experimental: as §1

[9] = tested on: Schizosaccharomyces pombe DSM 70572; assay: Antimicrobial serial dilution assay (MIC); type: cell-based
Experimental: as §1

[10] = tested on: Rhodotorula glutinis DSM 10134; assay: Antimicrobial serial dilution assay (MIC); type: cell-based
Experimental: as §1

[11] = tested on: Escherichia coli DSM 1116; assay: Antimicrobial serial dilution assay (MIC); type: cell-based; conditions: n.i.: no inhibition
Experimental: as §1

[12] = tested on: Pichia anomala DSM 6766; assay: Antimicrobial serial dilution assay (MIC); type: cell-based; conditions: Hansenula anomala
Experimental: as §1

[13] = tested on: Acinetobacter baumannii DSM 30008; assay: Antimicrobial serial dilution assay (MIC); type: cell-based; conditions: n.i.: no inhibition
Experimental: as §1

[14] = tested on: Mycobacterium smegmatis ATCC 700084; assay: Antimicrobial serial dilution assay (MIC); type: cell-based; conditions: Mycolicibacterium smegmatis
Experimental: as §1

[15] = tested on: Bacillus subtilis DSM 10; assay: Antimicrobial serial dilution assay (MIC); type: cell-based
Experimental: as §1

[16] = tested on: Mucor hiemalis DSM 2656; assay: Antimicrobial serial dilution assay (MIC); type: cell-based
Experimental: as §1

[17] = tested on: Candida albicans DSM1665; assay: Antimicrobial serial dilution assay (MIC); type: cell-based; conditions: n.i.: no inhibition
Experimental: as §1

[18] = tested on: Nocardioides simplex; set-up: method as in PMID 24529574; conditions: cited from earlier work
[19] = tested on: Micrococcus luteus; set-up: method as in PMID 24529574; conditions: cited from earlier work
[20] = tested on: S. aureus; set-up: method as in PMID 24529574; conditions: cited from earlier work
[21] = tested on: methicillin-resistant S. aureus (MRSA) strain N315e; set-up: method as in PMID 24529574; conditions: cited from earlier work
[22] = tested on: Mycobacterium diernhoferi; set-up: method as in PMID 24529574; conditions: cited from earlier work
[23] = tested on: Nocardia sp.; set-up: method as in PMID 24529574; conditions: cited from earlier work
[24] = 50 µg/paper disc, n.i.: no inhibition

## C[C@H]1CC[C@H]2[C@@H](C=C[C@H](C)[C@]2(C)C(=O)C2=C(O)[C@H]([C@@H](C)O)N(C)C2=O)C1 [Compound 1, CJ-17,572]
[1]
  phytotoxic activity, leaf puncture assay: brownish lesions
[2]; 20 µg/paper disc
  Antifungal activity, inhibition diameter: 9 mm
[2]
  inhibitory effects against H. fraxineus (in words): strong inhibitory effects
[2]; [24]
  Antifungal activity, inhibition diameter: 11 mm
[3]
  antimicrobial activity against the tested microorganisms (in words): moderate to weak antifungal activity
[4]; human, A431
  IC50: 23 µM
[4]; human, A549
  IC50: 4.4 µM
[4]; human, KB3.1, n.c.: no cytotoxicity
  IC50: 2.5 µM
[4]; human, MCF-7
  IC50: 2.7 µM
[4]; human, PC-3
  IC50: 3.3 µM
[4]; human, SKOV-3
  IC50: 3.3 µM
[4]; mouse, L929, n.c.: no cytotoxicity
  IC50: 5 µM
[5]
  cytotoxicity against the tested cell lines (in words): active against all the tested cell lines
[6]; n.i.: no inhibition
  Minimum inhibitory concentration (MIC): n.i.
[7]
  Minimum inhibitory concentration (MIC): n.i.
[8]; Staphylococcus aureus, DSM346, read-out: Minimum inhibitory concentration (MIC)
  MIC: 8.3 µg/mL (≈ 23 µM)
[9]; Schizosaccharomyces pombe, DSM70572, read-out: Minimum inhibitory concentration (MIC)
  MIC: 33.3 µg/mL (≈ 92.1 µM)
[10]; Rhodotorula glutinis, DSM10134, read-out: Minimum inhibitory concentration (MIC)
  MIC: 66.6 µg/mL (≈ 184 µM)
[11]
  Minimum inhibitory concentration (MIC): n.i.
[12]; DSM6766, read-out: Minimum inhibitory concentration (MIC)
  MIC: 33.3 µg/mL (≈ 92.1 µM)
[13]
  Minimum inhibitory concentration (MIC): n.i.
[14]; ATCC700084, read-out: Minimum inhibitory concentration (MIC)
  MIC: 66.6 µg/mL (≈ 184 µM)
[15]; Bacillus subtilis, DSM10, read-out: Minimum inhibitory concentration (MIC)
  MIC: 8.3 µg/mL (≈ 23 µM)
[16]; Mucor hiemalis, DSM2656, read-out: Minimum inhibitory concentration (MIC)
  MIC: 4.2 µg/mL (≈ 11.6 µM)
[17]
  Minimum inhibitory concentration (MIC): n.i.

## CC=C(Cl)C1=CC(=O)C23CC2C(C)(C)OC3(O)C1=O (centres unmarked) [Compound 3, Mycorrhizin A]
[1]
  phytotoxic activity, leaf puncture assay: brownish lesions; also recorded: most phytotoxic effects
[2]; 20 µg/paper disc
  Antifungal activity, inhibition diameter: 19 mm
[2]
  inhibitory effects against H. fraxineus (in words): strong inhibitory effects
[2]; [24]
  Antifungal activity, inhibition diameter: 31 mm
[3]
  antimicrobial activity against the tested microorganisms (in words): moderate to weak antifungal activity
[4]; human, A431 squamous cell carcinoma cells
  IC50: 1 µM
[4]; human, A549 lung carcinoma cells
  IC50: 22 µM
[4]; human, KB3.1 endocervical adenocarcinoma cells, n.c.: no cytotoxicity
  IC50: 11 µM
[4]; human, MCF-7 breast adenocarcinoma cells
  IC50: 0.64 µM
[4]; human, PC-3 prostate cancer cells
  IC50: 11 µM
[4]; human, SKOV-3 ovarian carcinoma cells
  IC50: 2.4 µM
[4]; mouse, L929 fibroblast cells, n.c.: no cytotoxicity
  IC50: 3.2 µM
[5]
  cytotoxicity against the tested cell lines (in words): active against all the tested cell lines
[6]; DSM30191, n.i.: no inhibition, read-out: Minimum inhibitory concentration (MIC)
  MIC: 66.6 µg/mL (≈ 236 µM)
[7]
  Minimum inhibitory concentration (MIC): n.i.
[8]; DSM346, Staphylococcus aureus DSM 346, n.i.: no inhibition, read-out: Minimum inhibitory concentration (MIC)
  MIC: 66.6 µg/mL (≈ 236 µM)
[9]; DSM70572, Schizosaccharomyces pombe DSM 70572, n.i.: no inhibition, read-out: Minimum inhibitory concentration (MIC)
  MIC: 33.3 µg/mL (≈ 118 µM)
[10]; DSM10134, Rhodotorula glutinis DSM 10134, n.i.: no inhibition, read-out: Minimum inhibitory concentration (MIC)
  MIC: 8.3 µg/mL (≈ 29.4 µM)
[11]
  Minimum inhibitory concentration (MIC): n.i.
[12]; DSM6766, Pichia anomala DSM 6766, n.i.: no inhibition, read-out: Minimum inhibitory concentration (MIC)
  MIC: 16.6 µg/mL (≈ 58.7 µM)
[13]
  Minimum inhibitory concentration (MIC): n.i.
[14]; ATCC700084, Mycobacterium smegmatis ATCC 700084, n.i.: no inhibition, read-out: Minimum inhibitory concentration (MIC)
  MIC: 66.6 µg/mL (≈ 236 µM)
[15]; DSM10, Bacillus subtilis DSM 10, n.i.: no inhibition, read-out: Minimum inhibitory concentration (MIC)
  MIC: 66.6 µg/mL (≈ 236 µM)
[16]; DSM2656, Mucor hiemalis DSM 2656, n.i.: no inhibition, read-out: Minimum inhibitory concentration (MIC)
  MIC: 4.2 µg/mL (≈ 14.9 µM)
[17]; read-out: Minimum inhibitory concentration (MIC)
  MIC: 66.6 µg/mL (≈ 236 µM)

## C/C=C/[C@@H]1C(C)=C[C@@H]2C[C@H](C)CC[C@H]2[C@]1(C)/C(O)=C1\C(=O)N[C@@H]([C@@H](C)O)C1=O [hymenosetin]
[18]
  MIC: ≤ 1.0 µg/mL
[19]
  MIC: ≤ 1.0 µg/mL
[20]
  MIC: ≤ 1.0 µg/mL
[21]
  MIC: ≤ 1.0 µg/mL
[22]
  MIC: ≤ 1.0 µg/mL
[23]
  MIC: ≤ 1.0 µg/mL
